Measurements from patent publication US20060148767A1, “Use of acyl salicylates as heat shock inducers” (priority 2001, published 2006).

What was measured:
[1] = tested on: human Hsp70 promoter; test: Heat shock induction in L 929 fibroblast cells, luciferase under human Hsp70 promoter; format: cell-based, mouse; details: for increase of heat shock response with respect to the control: 37° C.; for increase of heat shock response compared with the control: 40° C.
Method: Acetyl, propanoyl, n-butanoyl, n-octanoyl and n-decanoyl salicylates were tested for their ability to induce heat shock response in an in vitro system using L 929 fibroblast cells, in which the enzyme luciferase was cloned under the transcriptional control of the human Hsp70 promoter (Proc. Natl. Acad. Sci USA, 92, 7207-7211, 1995). The effects of the mentioned compounds on heat shock induction at different temperatures have been compared using Bimoclomol as reference compound (Table 1). As reported in Table 1, propanoyl salicylate and Bimoclomol at 37° C. increase the heat shock response by 33% with respect to the control, while n-butanoyl, n-octanoyl and n-decanoyl salicylates increase it up to 67%. […] (Nature Medicine, 3, 1150-1154, 1997).

[2] = tested on: heat shock response; details: cited from earlier work
[3] = tested on: Hsp70; test: Heat shock response in NHEK cells, Hsp70 ELISA; format: cell-based; details: NHEK keratinocytes, 18 hours at 37° C., no heat shock
Method: Acetyl, propanoyl, n-butanoyl, n-octanoyl and n-decanoyl salicylates, synthesized according to Example 1 or 2, were tested for their ability to induce heat shock response in an in vitro system using cells NHEK.
NHEK cells, grown at 37° C. to 75% confluence, were treated with different doses of propanoyl, n-butanoyl, n-octanoyl and n-decanoyl salicylates at a concentration range from 0 to 50 μM, using 50 mM sorbitol and heat shock at 42° C. as positive controls. After incubation for 18 hours at 37° C., Hsp70 levels were quantitatively determined on keratinocytes using the ELISA kit by StressGen.

[4] = tested on: UV-B induced erythema; test: Prevention and repair of UV-B induced skin damage; format: in vivo; details: guinea pigs, topical; untreated: erythema observed four hours after irradiation
Method: The effect of acyl-salicylates in the prevention and repair of UV-B induced skin damage was determined with an in vivo test, on female Hartley albino guinea pigs, using the propanoyl salicylate as model compound. The animals, that weighed about 400 g, were shaved with a commercial cream 24 h before irradiation. Propanoyl salicylate was applied 120 minutes before irradiation on the head distal area, on a 5 cm^2 rectangular area at a dose of about 2 mg/cm^2, the head proximal area serving as control site. A bank of four lamps providing a mean irradiation of about 1.2 mW/cm^2 at 310 nm was used as UV-B source. Following light exposure, sites were occluded with a cotton pad. The erythema following UV-B exposure was evaluated according to the following scale: not irradiated, 0, pale pink; slight erythema, 1, pink; moderate erythema, 2, intense pink; severe erythema, 3, intense pink, edema; ulcerated erythema, 4, intense pink, ulceration. One MED (minimal erythemal dose to obtain an erythema grade 1) for untreated animals corresponds to 5 minutes exposure at 400 mJ/cm^2. The protection effect was calculated as the ratio of protected skin MED to unprotected skin MED.

[5] = Stability as crystalline compound and in solution; format: physicochemical
Method: The mixture was stirred at room temperature for 30 minutes and kept at 70° C. for 2 hours. The reaction mixture was poured into ice water and the precipitated product was filtered in vacuo, dried and recrystallized tree times from toluene or ethanol as solvent. […] The ^1H-NMR spectrum of the synthesized propanoyl salicylate is consistent with the proposed structure.

[6] = molecular target: heat shock transcription factor (HSF) (Homo sapiens, UniProt Q00613); details: 2-30 mM; cited from earlier work
Sequence of heat shock transcription factor (HSF) (Q00613 whole entry): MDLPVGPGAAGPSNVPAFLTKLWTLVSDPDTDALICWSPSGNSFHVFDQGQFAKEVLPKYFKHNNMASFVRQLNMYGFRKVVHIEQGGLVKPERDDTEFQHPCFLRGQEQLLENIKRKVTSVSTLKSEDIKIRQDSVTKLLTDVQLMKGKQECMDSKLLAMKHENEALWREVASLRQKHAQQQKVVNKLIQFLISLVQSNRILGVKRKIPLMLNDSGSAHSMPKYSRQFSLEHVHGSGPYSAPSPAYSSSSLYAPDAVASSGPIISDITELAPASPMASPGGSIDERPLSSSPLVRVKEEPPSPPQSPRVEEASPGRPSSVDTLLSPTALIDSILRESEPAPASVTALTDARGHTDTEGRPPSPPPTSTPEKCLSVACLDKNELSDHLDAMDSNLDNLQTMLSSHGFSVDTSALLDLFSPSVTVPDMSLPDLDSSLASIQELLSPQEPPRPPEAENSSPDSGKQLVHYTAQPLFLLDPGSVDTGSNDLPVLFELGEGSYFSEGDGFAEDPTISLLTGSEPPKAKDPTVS

[7] = temperature stress 37° C., control (None) 0.3
[8] = temperature stress 40° C., control (None) 4.6

Row | Compound | increase of heat shock response with respect to the control [1] | increase of heat shock response compared with the control [1] | Luciferase activity [1, 7] | Luciferase activity [1, 8] | temperature of maximum induction activity [2] | increase of Hsp70 levels ([3]; 50 μM) | increase of Hsp70 levels ([3]; 5 μM) | time after UV-B irradiation at which erythema appeared in the treated area [4] | stability [5] | heat shock gene transcription [6]
1 | OC(CO/N=C(\Cl)c1cccnc1)CN1CCCCC1 (stereo not shown) [Bimoclomol, reference compound] | 33% | 20% | 0.4 arbitrary units × 10^−5 | 5.5 arbitrary units × 10^−5 | 43 °C | – | – | – | – | –
2 | CCCCCCCC(=O)OC(=O)c1ccccc1O [Octanoyl salicylate, n-octanoyl salicylate] | – | – | 0.5 arbitrary units × 10^−5 | 6.3 arbitrary units × 10^−5 | – | up to 130% | – | – | – | –
3 | CCC(=O)OC(=O)c1ccccc1O [Propanoyl salicylate] | 33% | 107% | 0.4 arbitrary units × 10^−5 | 9.5 arbitrary units × 10^−5 | – | – | up to 89% | 7 to 10 h | compatible with its use in cosmetic and pharmaceutical formulations | –
4 | O=C([O-])c1ccccc1O.[Na+] [sodium salicylate] | – | – | – | – | – | – | – | – | – | does not induce heat shock gene transcription
